Results as given in paper PMC3937211, “Serine Carboxypeptidase SCPEP1 and Cathepsin A Play Complementary Roles in Regulation of Vasoconstriction via Inactivation of Endothelin-1” (PLoS Genetics, 2014).

How the values were obtained:
[1] = ET-1 degradation rate in mouse blood and tissues (ELISA); format: in vivo; conditions: tail vein injection, at least 5 mice
Method: To determine the ET-1 degradation rate we injected mice in the tail vein with an ET-1 solution in saline at a dose of […]. Fifteen minutes after injection mice were sacrificed and their lungs and aorta as well as blood were collected to measure the concentration of ET-1 by ELISA. Endogenous levels of ET-1 were measured in the animals injected with saline.
Figure 6 Mice with combined CathA/Scpep1 deficiency have reduced ET-1 degradation rate. Blood plasma, lungs and aorta were collected from WT, Scpep1 ^−/−, CathA^S190A and DD mice 15 min post an intravenous injection of saline or ET-1 in saline (10 nmol/kg BW). The levels of ET-1 peptide were measured by ELISA in lung extracts (A), aorta extracts (B), and in blood plasma extracts (C) from mice injected with ET-1 and blood plasma extracts from mice injected with saline (D). Data are expressed as mean values (±S.E). At least 5 mice were studied for each genotype. * p<0.05 in Welch's modification of two-tailed unpaired t-test. […]
For peptide extraction, tissues (200 mg) were homogenized in 1 mol/L CH3COOH/20 mM HCl. […] Quantitative assay of ET-1 was performed with an ELISA kit (Enzo Life Sciences ADI-900-020A) as described by the manufacturer.

[2] = system: mice (arterial blood pressure); experiment: Blood pressure response to intravenous peptide injection, radiotelemetry; format: in vivo, mouse; conditions: for BP response to i.v. injection: 0.2 nmol/kg i.v.
Method: This hypothesis was further tested by measuring changes in BP in response to ET-1 and AI, the precursor of vasoconstrictive peptide AII. The changes in the diastolic and systolic BP (ΔDBP and ΔSBP, respectively) were calculated as the differences between the measured BP values and the basal values measured for the 30 min interval preceding the injection. To reduce the impact of the stress on BP caused by animal handling/injection, animals were receiving daily saline injections for 3 days prior to the experiment.
Figure 3 Mice with combined CathA/Scpep1 deficiency show higher increase in BP in response to systemic injection of ET-1. Sixteen week-old WT, Scpep1^−/−, CathA^S190A and DD male mice kept for two weeks on high-salt diet were intravenously injected with ET-1 solution in saline at a dose of 0.2 nmol/kg (A, B) and 5 nmol/kg (C, D). Changes in the systolic (ΔSBP) or diastolic (ΔDBP) blood pressure were calculated as differences between the means (±S.E) of the BP values recorded within 10 min intervals after the injections and means (±S.E) of the baseline BP values recorded within the 30 min interval before the injections. Two-way repeated measurements ANOVA was used to test differences between the mouse groups: significant differences between the mean BP values in Bonferroni post-test (* p<0.05, ** p<0.001, *** p<0.0001) are shown in the insert. N-value for each genotype is as follows: WT n = 5, DD n = 6, CathA^S190A n = 6, Scpep1 ^−/− n = 7.
Male CathA^S190A mice and appropriate littermate controls were implanted with TA11PA-C10 radiotelemetry sensors (Data Sciences International) in the left carotid artery for direct measurement of arterial pressure and heart rate as described, [38]. The transmitter was placed subcutaneously along the left flank. For basal measurements of mean day and night BP data were recorded continuously (sampling every hour for 20 sec) within 16 consecutive days and averaged for 12 h light and dark intervals. To measure changes in BP after ET-1 and AI injections data were recorded every 3 min for 2 h and averaged for 10-min consecutive intervals. […]

## endothelin-1 [ET-1]
[1]; lungs and aorta of CathA-deficient mice
  ET-1 concentration 15 min after injection versus WT or Scpep1-deficient animals: higher
[1]; tissues or plasma of DD mice, dose printed 0.1 nmol/kg BW
  ET-1 concentration 15 min after injection versus WT, CathA-deficient or Scpep1-deficient mice: significantly higher
[2]; DD mice versus other genotypes, high-salt diet
  BP response to i.v. injection: higher response as compared to all other groups of mice
[2]; WT and Scpep1-deficient mice on high-salt diet
  BP response to i.v. injection: no BP increase
[2]; 5 nmol/kg i.v., DD mice
  time BP remained significantly elevated after injection: at least 60 min
